Laboratory results taken from PMC12040169 (PLOS Biology, 2025).

Experiment: in vitro
Settings: human, hela cells, % viability

Row | Compound | viability at 28.5 h, 10 µM [%]
1 | CCOc1ccc2[nH]c(C(=O)N(C)CCN3CCCCC3)c(C)c2c1 [CBK282699] | 86.3
2 | CC(C)C(NC(=O)C1C=CCN1S(C)(=O)=O)c1cccs1 (stereo not shown) [CBK282701] | 82.5
3 | CC(=O)N1c2ccc(NC(=O)C3(C)CCCO3)cc2CC1C (stereo not shown) [CBK282702] | 98.5
4 | O=C(Cc1ccc2c(c1)CCC2)N1CCCCC1CN1CCOCC1 (stereo not shown) [CBK282704] | 88.8
5 | CC(C(=O)N1CCC(c2cc3cccnc3[nH]2)CC1)N1CCCC1=O (stereo not shown) [CBK282705] | 105
6 | CCC(C(=O)NCC1CCCN(C(C)C)C1)n1cnc2ccccc21 (stereo not shown) [CBK282706] | 88.6
7 | CC(NC(=O)c1cccc(-n2cnnc2)c1)c1ccc2c(c1)CCC2 (stereo not shown) [CBK282707] | 91.9
8 | Cc1ccn(CCNC(=O)Cn2c3c(c4ccccc42)CCC3)n1 [CBK282708] | 86.5
9 | O=C(NCCCc1ccc(F)cc1)c1cccc(-n2cnnc2)c1 [CBK282713] | 102
10 | O=C1CC2(CCNCC2)Oc2c1ccc1ccccc21 [CBK282714] | 93
11 | Cc1ccc2c(c1)C(=O)CC1(CCC3C(C(=O)NC4CCCC4)C31)O2 (stereo not shown) [CBK282716] | 83.4
12 | c1csc(-c2cc3cccnc3n2CCN2CCOCC2)c1 [CBK282718] | 80.5
13 | C=CCNC(=O)Cn1c(-c2ccco2)cc2cccnc21 [CBK282719] | 82.6
14 | COCCNC(=O)Cn1c(-c2ccco2)cc2cccnc21 [CBK282720] | 80.6
15 | Clc1ccc(C2(N3CCC(N4CCOCC4)CC3)CC2)cc1 [CBK282722] | 90.8
16 | Cc1[nH]c2c(C)cccc2c1CC(=O)N(C)CCN(C)C [CBK282724] | 82.6
17 | Cc1nc(-c2ccccc2)c(CC(=O)N(C)CCN(C)C)s1 [CBK282725] | 83.3
18 | Cc1[nH]c2ccc(F)cc2c1CC(=O)N(C)CCN(C)C [CBK282726] | 84.1
19 | Cc1cc(C)c2[nH]c(CC(=O)N(C)CCN(C)C)nc2c1 [CBK282727] | 74.3
20 | CN(CCN1CCCCC1)C(=O)C1CC(=O)Nc2ccccc21 (stereo not shown) [CBK282729] | 105
21 | Cc1cc(C)c2[nH]c(C)c(CC(=O)N(C)CCN(C)C)c2c1 [CBK282731] | 82.5
22 | CCn1cc(CN2CCC(O)(c3ccc(C)cc3)CC2)cn1 [CBK282735] | 85.7
23 | Cc1ccc(C2(O)CCN(Cc3cnn(C)c3C)CC2)cc1 [CBK282736] | 96.5
24 | Cc1ccccc1-n1nc(C)c(CN2CCC(O)C(C)C2)c1C (stereo not shown) [CBK282739] | 84.2

Row | Compound | viability at 28.5 h, 10 µM [%]
25 | Cc1ccccc1C(=O)N1C2CCC1CC(O)(Cn1ccnc1C)C2 (stereo not shown) [CBK282740] | 90.1
26 | CCn1cc(CN2C3CCC2CC(O)(c2ccc(F)cc2)C3)cn1 (stereo not shown) [CBK282741] | 77.3
27 | C=Cn1cc(CN2C3CCC2CC(O)(c2ccc(F)cc2)C3)c(C)n1 (stereo not shown) [CBK282742] | 80.6
28 | Cc1cc2c(cc1C)C(O)CC1(CCN(C(=O)C3CCCC3)CC1)O2 (stereo not shown) [CBK282743] | 81.5
29 | COc1ccccc1C1(NCc2cnn(C)c2)CCCC1 [CBK282744] | 97
30 | CCCC(NC(=O)c1cccc(-n2cnnc2)c1)c1cccs1 (stereo not shown) [CBK282745] | 102
31 | Cc1ccc2c(CC(=O)N(C)CCN3CCCCC3)coc2c1 [CBK282747] | 80.5
32 | Cc1[nH]c2ccc(F)cc2c1CC(=O)N(C)CCN1CCCCC1 [CBK282748] | 84.3
33 | Cc1ccc2[nH]c(C)c(CC(=O)N(C)CCN3CCCCC3)c2c1 [CBK282749] | 87.8
34 | Cc1ccc(C2(O)CCN(Cc3cn(C)nc3C)CC2)cc1 [CBK282753] | 107
35 | CCn1ncc(CN2C3CCC2CC(O)(c2cccc(F)c2)C3)c1C (stereo not shown) [CBK282754] | 91.6
36 | CCn1ncc(S(=O)(=O)N2CCCC(c3ccccc3)C2)c1C (stereo not shown) [CBK282760] | 100
37 | CCn1ncc(S(=O)(=O)Nc2ccc3c(c2)cc(C)n3C)c1C [CBK282761] | 95.6
38 | O=C(NC1(c2ccc(Cl)cc2)CC1)C1CCS(=O)(=O)C1 (stereo not shown) [CBK282765] | 75.3
39 | Cc1nn(C)cc1S(=O)(=O)NCC1(c2ccccc2)CCCC1 [CBK282766] | 85.9
40 | CCn1cc(S(=O)(=O)NC2(c3ccccc3)CCCC2)cn1 [CBK282767] | 90.6
41 | CCn1cc(S(=O)(=O)NCC2(c3ccccc3)CCCC2)cn1 [CBK282768] | 97.2
42 | CN(C)CCN(Cc1cccnc1)C(=O)Cc1ccc2c(c1)CCC2 [CBK282770] | 109
43 | Cc1cc(CNS(=O)(=O)N2CCCC2)c2[nH]c(C)c(C)c2c1 [CBK282772] | 95.1
44 | Cc1cnc(C(=O)NC2(c3ccc(Cl)cc3)CCC2)cn1 [CBK282775] | 95.2
45 | NC(=O)Cn1cc(CNC2(c3ccccc3)CC2)c2ccccc21 [CBK282776] | 94.9
46 | OCCN(Cc1ccncc1)CC1(c2ccc(Cl)cc2)CC1 [CBK282782] | 90.7
47 | Cc1nn(C)cc1S(=O)(=O)N1CCn2cccc2C1C(C)C (stereo not shown) [CBK282787] | 99.8
48 | Cc1nn(C)cc1S(=O)(=O)Nc1cccc(-c2ccc(F)cc2)c1 [CBK282788] | 103

Row | Compound | viability at 28.5 h, 10 µM [%]
49 | CCn1c(C)cc2cc(NS(=O)(=O)c3cn(C)nc3C)ccc21 [CBK282789] | 93.5
50 | CCC(CN1CCN(C)CC1)NC(=O)Cc1coc2cc(C)ccc12 (stereo not shown) [CBK282790] | 102
51 | Cc1nc2sccn2c1CN1CCC(O)(c2ccc(F)cc2)CC1 [CBK282792] | 98.2
52 | c1ccc(C2(CN3CCN(Cc4cccnc4)CC3)CC2)cc1 [CBK282793] | 117
53 | CCCOC1CCCN(Cc2cn(CC(N)=O)c3ccccc23)C1 (stereo not shown) [CBK282796] | 105
54 | CCCOC1CCCN(Cc2c(C)n(CC(N)=O)c3ccccc23)C1 (stereo not shown) [CBK282797] | 99.2
55 | CC(C)(CN1CCCC1)CN1CCC(O)(c2ccccc2F)CC1 [CBK282798] | 93.4
56 | Cc1nc(CN2CCC(O)(c3ccccc3F)CC2)c2ccccn12 [CBK282799] | 98.1
57 | Cc1nn(C)c(Cl)c1S(=O)(=O)NC1(c2ccc(F)cc2)CC1 [CBK282800] | 97.5
58 | CCn1cc(S(=O)(=O)NC2(c3ccc(F)cc3)CC2)cn1 [CBK282801] | 112
59 | CN(CCO)C(=O)CCn1c(C(F)F)cc2cccnc21 [CBK282805] | 91.9
60 | Cc1nc2sccn2c1CN1CCc2sccc2C1C (stereo not shown) [CBK282807] | 92.4
61 | OC1(c2ccccc2)CCN(Cc2cncn2Cc2ccccc2)C1 (stereo not shown) [CBK282809] | 110
62 | CCC(CN1CCOCC1)NC(=O)Cc1ccc2c(c1)CCC2 (stereo not shown) [CBK282810] | 114
63 | CCC(CN1CCOCC1)NC(=O)Cc1coc2cc(C)cc(C)c12 (stereo not shown) [CBK282812] | 103
64 | CCC(CN1CCOCC1)NC(=O)Cc1coc2c(C)c(C)ccc12 (stereo not shown) [CBK282813] | 82.1
65 | COc1ccc(OC)c2[nH]c(C(=O)N3CCCC34CC=CC4)cc12 [CBK282814] | 85.9
66 | Cc1cc(C)n2nc(C(=O)N3CCCC34CC=CC4)cc2n1 [CBK282815] | 88.7
67 | CCn1cncc1CN1CCC(O)(c2ccccc2F)CC1 [CBK282817] | 112
68 | CCn1cc(S(=O)(=O)Nc2ccc3c(ccn3C)c2)c(C)n1 [CBK282818] | 84.2
69 | Cc1cc2c(cc1C)C(=O)CC1(CCN(C(=O)c3ccco3)CC1)O2 [CBK282819] | 96
70 | CS(=O)(=O)N1CCC2(CC1)Cn1c(cc3ccccc31)C(=O)O2 [CBK282820] | 87.1
71 | O=C(Cc1ccccn1)NC(Cc1ccsc1)c1nccs1 (stereo not shown) [CBK282821] | 85.7
72 | Cc1nc(C)c(C(=O)NC(Cc2ccsc2)c2nccs2)s1 (stereo not shown) [CBK282822] | 82.3

Row | Compound | viability at 28.5 h, 10 µM [%]
73 | Cc1cnn(CC(=O)NC(Cc2ccsc2)c2nccs2)c1 (stereo not shown) [CBK282825] | 105
74 | CC(=O)N1CCC2(CC1)CC(O)c1cc(C)c(C)cc1O2 (stereo not shown) [CBK282826] | 107
75 | COc1ccc(C2(NCc3ccc(N4CCCC4=O)cc3)CC2)cc1 [CBK282834] | 103
76 | COc1ccc(C2(NCc3ccc4c(c3)n(C)c(=O)n4C)CC2)cc1 [CBK282836] | 103
77 | Cc1cc2c(cc1C)C(O)CC1(CCN(C(=O)c3ccco3)CC1)O2 (stereo not shown) [CBK282839] | 84
78 | Cc1ccc(N2CCCC2=O)cc1S(=O)(=O)NC1C2CCCCC21 (stereo not shown) [CBK282840] | 69
79 | O=C1CCCN1c1ccc(S(=O)(=O)NC2C3CCCCC32)cc1 (stereo not shown) [CBK282842] | 101
80 | Cn1cc(C(=O)NCC(c2ccc(F)cc2)N2CCCC2)ccc1=O (stereo not shown) [CBK282843] | 87.4
81 | CN(C)CCN(Cc1cccs1)Cc1cc(Cl)ccc1O [CBK282847] | 86.2
82 | CC12CN(Cc3ccccc3)CC1NC(=O)c1ccccc1C2N (stereo not shown) [CBK282850] | 99.5
83 | CCC(C)NC(=O)C1=CCN(S(C)(=O)=O)C1 (stereo not shown) [CBK282861] | 101
84 | c1coc(C2N3CCC4(CC3)c3[nH]c5ccccc5c3CCN24)c1 (stereo not shown) [CBK282862] | 112
85 | O=C1CC2(CCN(C(=O)C3CCCCC3)CC2)Oc2ccc(F)cc21 [CBK282863] | 74.6
86 | C=CCn1c2cc(C)sc2c2cnn(CCC(C)=O)c(=O)c21 [CBK282868] | 95.7
87 | CCc1nn(CCC(C)O)c(=O)c2cc3sc(C)cc3n12 (stereo not shown) [CBK282869] | 89.1
88 | O=C1Oc2nc3ccccc3cc2CN1C1CC1 [CBK282870] | 87.9
89 | O=C(CN1C(=O)N2CCN=C2c2ccc(Cl)cc21)NCC1CC1 [CBK282877] | 94.2
90 | Cc1cc(-c2cc(=O)n(Cc3ccccc3C)nc2-c2ccco2)on1 [CBK282878] | 96.7
91 | Nc1cc(-c2ccco2)nn(Cc2c(Cl)cccc2Cl)c1=O [CBK282880] | 112
92 | Nc1cc(-c2ccco2)nn(Cc2c(F)cccc2Cl)c1=O [CBK282881] | 86.1
93 | CC1Cc2cc(CCC(=O)N3CCCc4c(cnn4C)C3)ccc2O1 (stereo not shown) [CBK282882] | 100
94 | CCCc1ccc(C(=O)NCC(C)n2cncn2)o1 (stereo not shown) [CBK282883] | 92.5
